Columns and labels:
[1] = system: Rat primary motor neurons; assay: axon extension of rat primary motor neurons; format: cell-based; conditions: Neuron, cells extending axons counted after 72 hrs, values in parenthesis, read-out: reasonable range expected for the EC50
Method: Rat primary motor neurons were isolated from embryonic spinal cords in accordance with the method of Henderson et al.; J Cohen and G P Wilkin (ed.), Neural Cell Culture, (1995) p69-81 which is herein incorporated by reference in its entirety. Briefly, spinal cords were dissected from day 15 embryo (E15) and incubated in a trypsin solution, and followed by DNase treatment to release spinal cord cells from tissue fragments. The cell suspension was centrifuged to remove tissue fragments. Then motor neurons were enriched by density gradient centrifugation.
Motor neurons were cultured in serum-free neurobasal medium containing insulin, forskolin, 3-isobutyl-1-methylxanthine, neurotrophic factors, Bovine serum albumin, selenium, transferrin, putrescine, progesterone and B27 supplement in tissue culture plate coated with poly-ornithine and laminin.
Rat primary motor neurons were prepared and cultured as described Example 11. […] The cells extending axons were counted in five different fields for each treatment after 72 hrs. Percentage of positive cells relative to total cells in the same magnification field was calculated and the results were expressed as means+/− standard deviations, n=5.

[2] = system: Mouse Neuro2A neuroblastoma cells; assay: Neuro2A cells with neurites counted after retinoic acid differentiation and GGTI-298; format: cell-based
Method: Mouse Neuro2A neuroblastoma cells were cultured in DMEM supplemented with 10% FBS for 24 hrs. […] Then differentiation was induced by retinoic acid in DMEM supplemented with 2% FBS. An inhibitor against a G-protein, GGTI-298, was incubated. After 24 hrs incubation, cells with neurites were counted.

SMILES | EC50 [1] | effect of a large quantity on viability of neuroblastoma cells [2]
CC(=O)CC/C=C(\C)CC/C=C(\C)CC/C=C(\C)CCC=C(C)C [CNS-102, 5E,9E,13E-Geranylgeranyl acetone] | 0.5 to 2 nM | 
CC(=O)CC/C=C(/C)CC/C=C(\C)CC/C=C(\C)CCC=C(C)C [CNS-103, 5Z,9E,13E-Geranylgeranyl acetone] | 8 to 12 nM | inhibited viability of neuroblastoma cells
